Measured values taken from patent US20110280940A1, “Di-Vanilloyl And Tri-Vanilloyl Derivatives For Use In Anti-Cancer Therapy” (priority 2008, published 2011).
Like-named read-outs stand apart in the source and are kept apart here.

Assays:
[1] = system: Eleven human cancer cell lines; assay: MTT colorimetric assay, across the eleven human cancer cell lines; format: cell-based
Procedure, shortened: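 Cells were seeded, left 24 h at 37 °C, then exposed to compound at molar concentrations from 10^-8 to 10^-4 M for 72 h at 37 °C, in sestuplicate. Mean OD gave % living cells versus untreated control.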

[2] = system: U373-MG glioma cell line; assay: Cellular imaging (quantitative videomicroscopy), global growth ratio, U373; format: cell-based; details: Homo sapiens, 72 h, read-out: Global Grow Ratio Treated/Ct (GGR T/Ct) determined by Video Quantitative microscopy, U373
[3] = system: VM48 melanoma cells; assay: MTT colorimetric assay, overall cell growth, VM48; format: cell-based, human; details: Homo sapiens, read-out: In Vitro IC50 Growth Inhibitory Values, VM48
[4] = mean ± SEM over the 11 human cancer cell lines, MTT, 72 hours, read-out: In Vitro IC50 Growth Inhibitory Values, m ± SEM
[5] = Homo sapiens, 72 h, read-out: In Vitro IC50 Growth Inhibitory Values, m ± SEM

Row | SMILES | IC50 [1, 4] [µM] | activity at 50 µM ([2]; 50 μM) [%] | IC50 ([3]; MTT, 72 hours of incubation) [µM] | IC50 [1, 5] [µM] | IC50 ([3]; 72 h) [µM] | further results
1 | COc1cc(C(=O)OCCOC(=O)c2ccc(O)c(OC)c2)ccc1O [DLT1, Ethane-1,2-diyl bis-(4-hydroxy-3-methoxybenzoate)] | 53 | 30 | 53 |  |  | 
2 | O=C(OCc1cc(COC(=O)c2ccc(O)c(Cl)c2)cc(COC(=O)c2ccc(O)c(Cl)c2)c1)c1ccc(O)c(Cl)c1 [DLT95-Cl, [3,5-bis[(4-hydroxy-3-chloro-benzoyl)oxymethyl]phenyl]methyl 4-hydroxy-3-chloro-benzoate] |  |  |  | 29 ± 1 | 32 | 
3 | COc1cc(C(=O)O)ccc1O [vanillic acid, reference compound] | > 1000 |  | > 1000 |  |  | 
4 | COc1cc(C(=O)OCCCCCCOC(=O)c2ccc(O)c(OC)c2)ccc1O [DLT11, Hexane-1,6-diyl bis-(4-hydroxy-3-methoxybenzoate)] | 49 | 20 | 56 |  |  | IC50 ([1]; Homo sapiens, MTT colorimetric assay, read-out: IC50 growth inhibitory values, range depending on the cancer cell line analyzed): 22 to 71 µM
5 | COc1cc(C(=O)OCc2cc(COC(=O)c3ccc(O)c(OC)c3)cc(COC(=O)c3ccc(O)c(OC)c3)c2)ccc1O [DLT95, [3,5-bis[(4-hydroxy-3-methoxy-benzoyl)oxymethyl]phenyl]methyl 4-hydroxy-3-methoxy-benzoate] |  |  |  |  |  | activity at 50 µM [2]: 10%
6 | O=C(OCc1cc(COC(=O)c2ccc(O)c(F)c2)cc(COC(=O)c2ccc(O)c(F)c2)c1)c1ccc(O)c(F)c1 [DLT95-F, [3,5-bis[(4-hydroxy-3-fluoro-benzoyl)oxymethyl]phenyl]methyl 4-hydroxy-3-fluoro-benzoate] |  |  |  | 33 ± 2 | 61 | 
